# In US12581252B2, “Substituted pyrrolo[3,4-b]pyridines as PI3K-α inhibitors” (Relay Therapeutics, Inc., priority 2020, dated 2026):
# Tests used:
# H1047R PIK3CA enzyme = H1047R PIK3CA enzyme (Homo sapiens, UniProt P42336, H1047R); assay: ADP-Glo Biochemical PIK3CA Kinase Assay
# cells = settings: Homo sapiens, MCF-10A, read-out: MCF10A IC50
# Sequence of H1047R PIK3CA enzyme (P42336 whole entry H1047R): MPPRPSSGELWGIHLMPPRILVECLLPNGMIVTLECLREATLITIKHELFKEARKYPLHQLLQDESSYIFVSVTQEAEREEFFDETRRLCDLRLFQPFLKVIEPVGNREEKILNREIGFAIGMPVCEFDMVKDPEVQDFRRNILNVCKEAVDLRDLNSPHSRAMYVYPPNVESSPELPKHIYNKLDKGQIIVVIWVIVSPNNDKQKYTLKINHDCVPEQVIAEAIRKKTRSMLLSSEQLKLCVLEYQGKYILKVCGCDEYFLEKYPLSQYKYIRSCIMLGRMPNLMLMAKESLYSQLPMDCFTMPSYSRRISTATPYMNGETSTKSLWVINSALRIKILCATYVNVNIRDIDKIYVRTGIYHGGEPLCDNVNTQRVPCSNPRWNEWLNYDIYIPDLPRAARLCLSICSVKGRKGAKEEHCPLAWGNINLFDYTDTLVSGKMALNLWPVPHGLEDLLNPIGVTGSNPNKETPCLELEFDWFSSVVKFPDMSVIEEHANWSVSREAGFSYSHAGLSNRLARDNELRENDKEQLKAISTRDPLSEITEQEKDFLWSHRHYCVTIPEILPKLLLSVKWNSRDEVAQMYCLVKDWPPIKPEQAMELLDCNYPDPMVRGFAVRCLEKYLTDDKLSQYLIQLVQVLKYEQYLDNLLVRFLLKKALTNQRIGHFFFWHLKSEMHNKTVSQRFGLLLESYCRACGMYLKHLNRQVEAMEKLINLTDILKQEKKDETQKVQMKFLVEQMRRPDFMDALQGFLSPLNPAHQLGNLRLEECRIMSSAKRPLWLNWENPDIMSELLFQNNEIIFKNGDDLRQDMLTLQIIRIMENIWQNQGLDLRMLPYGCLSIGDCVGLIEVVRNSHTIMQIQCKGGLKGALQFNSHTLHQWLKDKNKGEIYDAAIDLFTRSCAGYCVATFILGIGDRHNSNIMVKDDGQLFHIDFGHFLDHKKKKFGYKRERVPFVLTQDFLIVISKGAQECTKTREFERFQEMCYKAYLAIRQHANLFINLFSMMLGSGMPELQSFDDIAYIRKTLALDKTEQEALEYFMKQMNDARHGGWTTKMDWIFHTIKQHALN
# Sequence of H1047R PIK3CA enzyme (P27986 whole entry partner): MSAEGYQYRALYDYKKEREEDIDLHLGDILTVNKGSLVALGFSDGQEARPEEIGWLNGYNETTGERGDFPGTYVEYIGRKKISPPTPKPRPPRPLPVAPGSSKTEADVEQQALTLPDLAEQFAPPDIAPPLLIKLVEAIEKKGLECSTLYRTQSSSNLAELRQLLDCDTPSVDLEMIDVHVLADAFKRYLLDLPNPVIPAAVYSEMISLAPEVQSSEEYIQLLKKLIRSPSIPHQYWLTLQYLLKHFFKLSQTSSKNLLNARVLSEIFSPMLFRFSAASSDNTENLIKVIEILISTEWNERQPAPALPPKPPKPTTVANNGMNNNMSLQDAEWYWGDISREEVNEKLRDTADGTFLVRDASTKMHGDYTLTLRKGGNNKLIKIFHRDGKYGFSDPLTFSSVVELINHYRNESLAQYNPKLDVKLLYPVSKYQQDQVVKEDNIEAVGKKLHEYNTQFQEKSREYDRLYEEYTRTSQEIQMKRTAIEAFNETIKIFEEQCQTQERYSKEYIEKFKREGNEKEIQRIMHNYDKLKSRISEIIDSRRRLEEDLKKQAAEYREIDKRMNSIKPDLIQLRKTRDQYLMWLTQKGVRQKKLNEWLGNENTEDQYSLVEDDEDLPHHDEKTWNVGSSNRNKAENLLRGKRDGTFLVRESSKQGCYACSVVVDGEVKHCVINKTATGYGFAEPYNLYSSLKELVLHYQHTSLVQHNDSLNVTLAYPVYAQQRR
SMILES,IC50 (H1047R PIK3CA enzyme) [µM],IC50 (cells) [µM]
O=C(Nc1cc(-c2nc3cnccc3[nH]2)cc2c1C(c1cc(F)ccc1Cl)NC2=O)c1cc(F)cc(C(F)(F)F)c1 (stereo not drawn) [Compound I-1025],≤ 0.1,1 to 5
"[2H]C1([2H])N(C(=O)Nc2cccc3c2[C@H](c2cc(F)ccc2Cl)NC3=O)c2ccc(F)cc2[C@]1(O)C(F)(F)F (single isomer, unassigned) [Compound I-2595]",≤ 0.1,< 1
"O=C1N[C@H](c2cc(F)ccc2Cl)c2c(NC(=O)N3C[C@@](O)(C(F)(F)F)c4cc(F)ccc43)ccnc21 (single isomer, unassigned) [Compound I-2698]",≤ 0.1,1 to 5
"Cn1cc(Nc2cc(NC(=O)c3cc(F)cc(C(F)(F)F)c3)c3c(c2)C(=O)N[C@H]3c2cc(F)ccc2Cl)cn1 (single isomer, unassigned) [Compound I-997]",≤ 0.1,< 1
"Cc1ccccc1C1NC(=O)c2cc(Br)cc(NC(=O)c3csc4ccccc34)c21 (stereo not drawn) [Compound I-29, N-[6-bromo-3-(2-methylphenyl)-1-oxo-2,3-dihydro-1H-isoindol-4-yl]-1-benzothiophene-3-carboxamide]",≤ 0.1,< 1
O=C1NC(c2cc(F)ccc2Cl)c2c(NC(=O)N3CC(O)(C(F)F)c4cc(F)ccc43)cc(F)cc21 (stereo not drawn) [Compound I-2622],≤ 0.1,1 to 5
"O=C1N[C@@H](c2cc(F)ccc2Cl)c2c(NC(=O)N3C[C@](O)(C(F)F)c4cc(F)ccc43)cc(F)cc21 (single isomer, unassigned) [Compound I-2635]",≤ 0.1,< 1
N#CC1(C(=O)Nc2cc(NC(=O)c3cc(F)cc(C(F)(F)F)c3)c3c(c2)C(=O)NC3c2cc(F)ccc2Cl)CNC1 (stereo not drawn) [Compound I-2149],≤ 0.1,10 to 36
O=C(Nc1cc(-c2cnn3cccnc23)cc2c1C(c1cc(F)ccc1Cl)NC2=O)c1cc(F)cc(C(F)(F)F)c1 (stereo not drawn) [Compound I-1046],≤ 0.1,< 1
COc1cccc(-c2cc(NC(=O)c3cc(F)cc(C(F)(F)F)c3)c3c(c2)C(=O)N[C@H]3c2cc(F)ccc2Cl)n1 (stereo in doubt) [Compound I-1006],≤ 0.1,< 1
O=C(Nc1cc(Nc2ncco2)cc2c1C(c1cc(F)ccc1Cl)NC2=O)c1cc(F)cc(C(F)(F)F)c1 (stereo not drawn) [Compound I-961],≤ 0.1,< 1
O=C1N[C@H](c2cc(F)ccc2C(F)F)c2c(NC(=O)c3nsc4ccccc34)cccc21 [Compound I-167],≤ 0.1,1 to 5
O=C(Nc1cc(-c2cnc3ncnn3c2)cc2c1[C@H](c1cc(F)ccc1Cl)NC2=O)c1cc(F)cc(C(F)(F)F)c1 [Compound I-1024],≤ 0.1,< 1
O=C(Nc1cc(-n2cccn2)cc2c1[C@H](c1cc(F)ccc1Cl)NC2=O)c1cc(F)cc(C(F)(F)F)c1 [Compound I-1069],≤ 0.1,< 1
O=C(Nc1cc(-c2cnn(C3CC3)c2)cc2c1C(c1cc(F)ccc1Cl)NC2=O)c1cc(F)cc(C(F)(F)F)c1 (stereo not drawn) [Compound I-942],≤ 0.1,< 1
COc1nccc(N2CC(c3cc(NC(=O)c4cc(F)cc(C(F)(F)F)c4)c4c(c3)C(=O)NC4c3cc(F)ccc3Cl)C2)n1 (stereo not drawn) [Compound I-1162],≤ 0.1,< 1
O=C(Nc1cc(-c2cc3ncccc3[nH]2)cc2c1C(c1cc(F)ccc1Cl)NC2=O)c1cc(F)cc(C(F)(F)F)c1 (stereo not drawn) [Compound I-970],≤ 0.1,< 1
O=C(Nc1cc(-c2ccncc2F)cc2c1C(c1cc(F)ccc1Cl)NC2=O)c1cc(F)cc(C(F)(F)F)c1 (stereo not drawn) [Compound I-887],≤ 0.1,< 1
Cc1nc(Nc2cc(NC(=O)c3cc(F)cc(C(F)(F)F)c3)c3c(c2)C(=O)NC3c2cc(F)ccc2Cl)oc1C (stereo not drawn) [Compound I-966],≤ 0.1,< 1
O=C(Nc1cc(Br)cc2c1[C@H](c1cc(F)ccc1Cl)NC2=O)c1cc(F)cc(C(F)(F)F)c1 [Compound I-388],≤ 0.1,< 1
Cc1noc(C)c1Nc1cc(NC(=O)c2cc(F)cc(C(F)(F)F)c2)c2c(c1)C(=O)NC2c1cc(F)ccc1Cl (stereo not drawn) [Compound I-923],≤ 0.1,< 1
"CC1(Cc2cc(NC(=O)N3C[C@](O)(C(F)(F)F)c4cc(F)ccc43)c3c(c2)C(=O)N[C@@H]3c2cc(F)ccc2Cl)COC1 (single isomer, unassigned) [Compound I-2657]",≤ 0.1,< 1
O=C(Nc1cc(-c2cnc3ccccc3n2)cc2c1C(c1cc(F)ccc1Cl)NC2=O)c1cc(F)cc(C(F)(F)F)c1 (stereo not drawn) [Compound I-948],≤ 0.1,< 1
"O=C1N[C@@H](c2cc(F)ccc2Cl)c2c(NC(=O)N3C[C@](O)(C(F)(F)F)c4cc(F)ccc43)ccc(-n3nccn3)c21 (single isomer, unassigned) [Compound I-2525]",≤ 0.1,< 1
COc1ncc(-c2cc(NC(=O)c3cc(F)cc(C(F)(F)F)c3)c3c(c2)C(=O)N[C@H]3c2cc(F)ccc2Cl)cn1 [Compound I-882],≤ 0.1,< 1
O=C(Nc1cc(NC2=NCCO2)cc2c1C(c1cc(F)ccc1Cl)NC2=O)c1cc(F)cc(C(F)(F)F)c1 (stereo not drawn) [Compound I-2256],≤ 0.1,1 to 5

SMILES,IC50 (H1047R PIK3CA enzyme) [µM],IC50 (cells) [µM]
O=C1NC(c2cc(F)ccc2Cl)c2c(NC(=O)c3cc(F)cc4c(Cl)c[nH]c34)cccc21 (stereo not drawn) [Compound I-1161],0.1 to 0.5,1 to 5
N#Cc1cc(NC(=O)N2CC(O)(C(F)(F)F)c3ccccc32)c2c(c1)C(=O)NC2c1cc(F)ccc1Cl (stereo not drawn) [Compound I-2473],≤ 0.1,< 1
O=C(Nc1cc(-c2cncnc2)cc2c1C(c1cc(F)ccc1Cl)NC2=O)c1cc(F)cc(C(F)(F)F)c1 (stereo not drawn) [Compound I-967],≤ 0.1,< 1
Cc1ccccc1C1NC(=O)c2cccc(NC(=O)N3CC(C)(C)c4ccccc43)c21 (stereo not drawn) [Compound I-45],1 to 10,10 to 36
"O=C1N[C@H](c2cc(F)ccc2Cl)c2c(NC(=O)N3C[C@H](O)c4cc(F)ccc43)cc(-c3ccc(=O)n(C(F)F)c3)cc21 (single isomer, unassigned) [Compound I-2448]",≤ 0.1,1 to 5
O=C(Nc1cc(-c2cnn(-c3ncccn3)c2)cc2c1C(c1cc(F)ccc1Cl)NC2=O)c1cc(F)cc(C(F)(F)F)c1 (stereo not drawn) [Compound I-1418],≤ 0.1,< 1
Cc1ccccc1C1NC(=O)c2cc(N)cc(NC(=O)c3cc(F)cc(C(F)(F)F)c3)c21 (stereo not drawn) [Compound I-40],≤ 0.1,1 to 5
O=C(Nc1cc(-c2ncc[nH]2)cc2c1[C@H](c1cc(F)ccc1Cl)NC2=O)c1cc(F)cc(C(F)(F)F)c1 [Compound I-919],≤ 0.1,< 1
Cc1ccccc1C1NC(=O)c2cc(NC(C)C)cc(NC(=O)c3csc4ccccc34)c21 (stereo not drawn) [Compound I-53],≤ 0.1,< 1
"O=C1N[C@@H](c2cc(F)ccc2Cl)c2c(NC(=O)N3C[C@](O)(C(F)(F)F)c4cc(F)ccc43)cc(C3COC3)cc21 (single isomer, unassigned) [Compound I-2655]",≤ 0.1,< 1
O=C(Nc1cc(-c2ccc3ncnn3c2)cc2c1[C@@H](c1cc(Cl)ccc1Cl)NC2=O)c1cc(F)cc(C(F)(F)F)c1 [Compound I-1054],≤ 0.1,< 1
O=C(Nc1cc(-n2cccn2)cc2c1C(c1cc(F)ccc1Cl)NC2=O)c1cc(F)cc(C(F)(F)F)c1 (stereo not drawn) [Compound I-960],≤ 0.1,< 1
O=C1NC(c2cc(F)ccc2Cl)c2c(NC(=O)N3CCc4ccccc43)cccc21 (stereo not drawn) [Compound I-2479],≤ 0.1,1 to 5
O=C1COCc2cc(-c3cc(NC(=O)c4cc(F)cc(C(F)(F)F)c4)c4c(c3)C(=O)NC4c3cc(F)ccc3Cl)ccc2N1 (stereo not drawn) [Compound I-1043],≤ 0.1,< 1
O=C1CCc2c(cccc2-c2cc(NC(=O)c3cc(F)cc(C(F)(F)F)c3)c3c(c2)C(=O)NC3c2cc(F)ccc2Cl)N1 (stereo not drawn) [Compound I-1028],≤ 0.1,< 1
Cn1cc(-c2cc(NC(=O)c3cc(F)cc(C(F)(F)F)c3)c3c(c2)C(=O)NC3c2cc(F)ccc2Cl)cn1 (stereo not drawn) [Compound I-811],≤ 0.1,< 1
"CNc1cc(NC(=O)N2C[C@](O)(C(F)(F)F)c3cc(F)ccc32)c2c(c1C#N)C(=O)N[C@@H]2c1cc(F)ccc1Cl (single isomer, unassigned) [Compound I-2609]",≤ 0.1,< 1
O=C(Nc1cc(-c2ccnc3ccccc23)cc2c1C(c1cc(F)ccc1Cl)NC2=O)c1cc(F)cc(C(F)(F)F)c1 (stereo not drawn) [Compound I-934],≤ 0.1,< 1
O=C(Nc1cc(Br)cc2c1C(c1cc(F)ccc1Cl)NC2=O)c1cc(F)cc(C(F)(F)F)c1 (stereo not drawn) [Compound I-124],≤ 0.1,1 to 5
Cc1cc(-c2cc(NC(=O)c3cc(F)cc(C(F)(F)F)c3)c3c(c2)C(=O)NC3c2cc(F)ccc2Cl)cc2cnn(C)c12 (stereo not drawn) [Compound I-927],0.1 to 0.5,5 to 10
"CC(C)(CN)n1cc(-c2cc(NC(=O)N3C[C@@](O)(C(F)(F)F)c4cc(F)ccc43)c3c(c2)C(=O)N[C@@H]3c2cc(F)ccc2Cl)cn1 (single isomer, unassigned) [Compound I-2649]",≤ 0.1,1 to 5
NCc1cc(NC(=O)N2CC(O)(C(F)F)c3cc(F)ccc32)c2c(c1)C(=O)NC2c1cc(F)ccc1Cl (stereo not drawn) [Compound I-2597],≤ 0.1,10 to 36
"O=C1N[C@@H](c2cc(F)ccc2Cl)c2c(NC(=O)N3C[C@](O)(C(F)(F)F)c4cc(F)ccc43)ccc(-n3ccnn3)c21 (single isomer, unassigned) [Compound I-2520]",≤ 0.1,< 1
O=C(Nc1cc(-c2ccc3ncccc3c2)cc2c1[C@H](c1cc(F)ccc1Cl)NC2=O)c1cc(F)cc(C(F)(F)F)c1 [Compound I-894],≤ 0.1,< 1
O=C(Nc1cc(C2CC(O)C2)cc2c1C(c1cc(F)ccc1Cl)NC2=O)c1cc(F)cc(C(F)(F)F)c1 (stereo not drawn) [Compound I-1019],≤ 0.1,< 1
